Columns and labels:
[1] = Solubility test in water (37° C.), Compound A concentration of filtrate by HPLC; format: physicochemical
Protocol: By using, as test samples, the β-type crystalline material obtained in Example 1 and the α-type crystalline material obtained in Comparative Example 1, a water (37° C.) solubility test was carried out. The test sample (about 10 mg) was added to 100 mL of water (37° C.), and the mixture was stirred at 1000 rpm. The mixture was sampled at some points of time, and each sample taken out was filtered through a membrane filter (Millex LG-13 manufactured by Millipore Corp, Japan). The compound A concentration of each filtrate was determined with high-performance liquid chromatography (HPLC). The measurement conditions were as follows:
HPLC: LC-10vp series (manufactured by Shimadzu Corp. Japan)
System controller: CBM-10A
Measurement wavelength: 246 nm
Column: Mightysil RP-18 GP 4.6×250 mm (manufactured by Kanto Chemical Co., Inc., Japan)
Column temperature: Fixed temperature at around 40° C.
Mobile phase: Mixture of methanol and water (55:45)
Amount of influent: 10 μL
Internal standard solution: Acetonitrile solution of propyl paraoxybenzoate (conc.200 μg/mL)

[2] = Absorbability test: oral administration to cynomolgus monkeys, Compound B in blood plasma as indicator; format: in vivo
Protocol: The α-type crystalline material obtained in Comparative Example 1 or the β-type crystalline material obtained in Example 1 was suspended in a 1 wt. % aqueous solution of methyl cellulose. Each suspension was orally administered to a group of cynomolgus monkeys that had not been fed one overnight (5 mg/kg, n=5). The two samples were compared, in terms of the change of Compound B concentration of blood plasma and the area under the medicine concentration in blood plasma-time curve (AUC), to evaluate the difference in absorbability between the samples. The Compound B concentration of blood plasma derived from the blood sample was determined in the following manner.
By centrifugally separating the blood (1 mL) taken from a saphenous vein (4° C., 3000 rpm, 10 minutes) in the presence of heparin, blood plasma was obtained. To this blood plasma (100 μL), a methanol solution containing an internal standard substance (sodium 7-methyl-4(5H),10-dioxo-2H-1,2,3-triazolo [4,5-c][1]benzazepine) (100 ng/mL, 100 μL) and methanol (400 μL) were added, and the mixture was stirred and was then subjected to centrifugal separation (4° C., 10000 rpm, 5 minutes). Methanol (300 μL) was added again to the supernatant, and the mixture was centrifugally separated under the same conditions as the previous manner. […]
Fluorescence detection wavelengths: Ex 270 nm, Em 466 nm […]

water solubility compared with the α-type crystalline material ([1]; water 37° C.)	Compound B concentration of blood plasma compared with the α-type-crystalline-material-administered group ([2]; cynomolgus monkeys, fasted overnight, oral 5 mg/kg, suspension in 1 wt. % aqueous methyl cellulose, n=5, FIG. 6)	solubility in solvents such as water ([1]; background statement from applicant's experiments, solvents such as water)	absorption into organisms ([2]; background statement, administered as it is)	SMILES
higher	higher values	–	–	COc1cc2[nH]c(=O)c3nn(C(OC(=O)OC(C)C)C(C)C)nc3c(=O)c2cc1OC (stereo not drawn) [β-type crystalline material, 2-(1-Isopropoxycarbonyloxy-2-methylpropyl)-7,8-dimethoxy-4(5H),10-dioxo-2H-1,2,3-triazolo[4,5-c][1]benzazepine]
–	–	sparingly soluble	cannot be easily absorbed	COc1cc2[nH]c(=O)c3nn(C(OC(=O)OC(C)C)C(C)C)nc3c(=O)c2cc1OC (stereo not drawn) [α-type crystalline material, 2-(1-Isopropoxycarbonyloxy-2-methylpropyl)-7,8-dimethoxy-4(5H),10-dioxo-2H-1,2,3-triazolo[4,5-c][1]benzazepine]

— patent US20070167432A1, “Tricyclic triazolobenzapine derivative produced as novel crystalline substance” (MEIJI SEILA KAISHA, LTD, priority 2003, published 2007)
